The values below are quoted from earlier work in patent US20210393559A1, “Compositions and Methods of Use of Beta-Hydroxy-Beta-methylbutyrate (HMB) for Improving Muscle Mass, Strength and Muscular Function Without Exercise” (Metabolic Technologies, LLC, priority 2020, published 2021).

Data set [1] deals with T1, 1-alpha, 25-Vitamin D hydroxylase (Homo sapiens, UniProt O15528).
T1 sequence (O15528 1-508): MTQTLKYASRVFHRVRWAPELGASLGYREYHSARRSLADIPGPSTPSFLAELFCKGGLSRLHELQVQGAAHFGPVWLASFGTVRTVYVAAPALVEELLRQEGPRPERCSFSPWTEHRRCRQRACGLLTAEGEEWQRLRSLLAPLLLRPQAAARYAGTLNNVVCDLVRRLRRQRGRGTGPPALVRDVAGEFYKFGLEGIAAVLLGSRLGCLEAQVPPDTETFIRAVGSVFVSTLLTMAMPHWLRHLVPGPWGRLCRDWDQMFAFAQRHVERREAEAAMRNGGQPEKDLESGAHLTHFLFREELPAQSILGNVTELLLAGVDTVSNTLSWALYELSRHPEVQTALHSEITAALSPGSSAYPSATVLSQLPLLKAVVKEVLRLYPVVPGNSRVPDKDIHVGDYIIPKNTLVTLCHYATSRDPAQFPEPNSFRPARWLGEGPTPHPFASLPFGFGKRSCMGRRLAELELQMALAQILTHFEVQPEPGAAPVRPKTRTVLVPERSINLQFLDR
The following applies: human vascular smooth muscle.

The conditions of data set [2]: after HMB is fed.
For data set [3] the following is noted: healthy young or old adults.

What is called Km is the substrate concentration at which the rate is half of its maximum. For the molecule `C=C1CC[C@H](O)C/C1=C/C=C1\CCC[C@]2(C)[C@@H]([C@H](C)CCCC(C)(C)O)CC[C@@H]12` [25OH-VitD3], the Michaelis-Menten constant (Km) in data set [1] is recorded as 25 ng/mL.

Consider β-hydroxy-β-methylbutyrate [HMB], for which the “loss of HMB to urine” value in data set [2] is recorded as 20-50%. In data set [3], the side effects entry is “no side effects”.
